Reference: ChEMBL document CHEMBL1201862, “PubChem BioAssay data set” (2004)
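Cells were grown in 96-well plates and exposed to each compound for 48 hours at five concentrations; endpoints were interpolated linearly between bracketing concentrations, or set to the highest concentration if not reached. Abbreviation: GI50, concentration required for 50% inhibition of growth.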 Active and inactive are the calls of the source. Cut-off read from the data, not from the text of the source: active = GI50 up to about 1.1 µM and inactive = higher.

Tests used:
Assay in all cases: DTP human tumour cell line panel, 48 h
[1] = test system: DLD-1
[2] = test system: XF498
[3] = test system: SNB-78
[4] = test system: HOP-18
[5] = test system: M19-MEL
[6] = test system: DMS-114
[7] = test system: DMS-273
[8] = test system: RXF 631
[9] = test system: LXFL 529

## OC(c1ccccc1)(c1ccccc1)c1ccccn1
[1]
  GI50: > 100 µM (inactive)
[2]
  GI50: > 100 µM (inactive)
[3]
  GI50: > 100 µM (inactive)
[4]
  GI50: > 100 µM (inactive)
[5]
  GI50: > 100 µM (inactive)
[6]
  GI50: 72.9 µM (inactive)
[7]
  GI50: > 100 µM (inactive)
[8]
  GI50: > 100 µM (inactive)
[9]
  GI50: > 100 µM (inactive)

## CC(C)OC(=O)Nc1c([N+](=O)[O-])cc(C(F)(F)F)cc1[N+](=O)[O-]
[1]
  GI50: > 100 µM (inactive)
[2]
  GI50: 28.1 µM (inactive)
[3]
  GI50: > 50 µM (inactive)
[4]
  GI50: 21.6 µM (inactive)
[7]
  GI50: > 100 µM (inactive)
[9]
  GI50: > 100 µM (inactive)

## N#CC1(C#N)C2C=CC(c3coc4cccc2c34)C1(C#N)C#N (stereo not given)
[1]
  GI50: 2.02 µM (inactive)
[2]
  GI50: 4.99 µM (inactive)
[3]
  GI50: 15.8 µM (inactive)
[4]
  GI50: 16.6 µM (inactive)
[5]
  GI50: 3.05 µM (inactive)
[6]
  GI50: 5.11 µM (inactive)
[7]
  GI50: 16.7 µM (inactive)
[9]
  GI50: 8.87 µM (inactive)

## O=C1OC(O)c2cc3c(cc21)OCO3 (stereo not given)
[1]
  GI50: > 100 µM (inactive)
[2]
  GI50: > 100 µM (inactive)
[3]
  GI50: > 100 µM (inactive)
[5]
  GI50: > 100 µM (inactive)
[6]
  GI50: > 100 µM (inactive)
[7]
  GI50: > 100 µM (inactive)
[9]
  GI50: > 100 µM (inactive)

## CC1=C(C)C(=O)c2c(cc3c4ccccc4ccn23)C1=O
[1]
  GI50: > 100 µM (inactive)
[2]
  GI50: 63.8 µM (inactive)
[4]
  GI50: > 100 µM (inactive)
[5]
  GI50: > 100 µM (inactive)
[6]
  GI50: > 100 µM (inactive)
[7]
  GI50: > 100 µM (inactive)

## C/C=C1\Oc2ccc(OC)cc2S1(=O)=O
[1]
  GI50: > 100 µM (inactive)
[3]
  GI50: > 100 µM (inactive)
[4]
  GI50: > 100 µM (inactive)
[5]
  GI50: > 100 µM (inactive)
[6]
  GI50: > 100 µM (inactive)
[7]
  GI50: > 100 µM (inactive)
[9]
  GI50: > 100 µM (inactive)

## CCOC(=O)c1cc2c3c(c(O)c(OC)c2s1)N(C(=O)c1cc2c4c(c(O)c(OC)c2s1)N(C(C)=O)CC4)CC3
[1]
  GI50: > 100 µM (inactive)
[2]
  GI50: 32.1 µM (inactive)
[3]
  GI50: > 100 µM (inactive)
[4]
  GI50: > 100 µM (inactive)
[5]
  GI50: > 100 µM (inactive)
[6]
  GI50: > 100 µM (inactive)
[7]
  GI50: 61.8 µM (inactive)
[8]
  GI50: 9.08 µM (inactive)
[9]
  GI50: 93.3 µM (inactive)

## CC(C)CC1CC2C(=O)N(c3ccccc3)C(=O)C2c2[nH]c3ccccc3c21 (stereo not given)
[1]
  GI50: 29 µM (inactive)
[2]
  GI50: 20.3 µM (inactive)
[3]
  GI50: > 74.3 µM (inactive)
[4]
  GI50: 11.4 µM (inactive)
[5]
  GI50: 34.2 µM (inactive)
[6]
  GI50: 15.9 µM (inactive)
[7]
  GI50: 26.9 µM (inactive)
[8]
  GI50: 15.2 µM (inactive)
[9]
  GI50: 60 µM (inactive)

## CC1(C)C(=O)C(O)=CC2C1=CCC1C2(C)C(=O)CC2(C)C(C(C)(O)C(=O)CC(O)C(C)(C)O)C(O)CC12C (stereo not given)
[1]
  GI50: 3.19 µM (inactive)
[2]
  GI50: 3.28 µM (inactive)
[3]
  GI50: 3.78 µM (inactive)
[4]
  GI50: 2.51 µM (inactive)
[5]
  GI50: 8.85 µM (inactive)
[6]
  GI50: 6.67 µM (inactive)
[7]
  GI50: 2.85 µM (inactive)
[9]
  GI50: 3.64 µM (inactive)

## C=C(CN(CC(=C)C(=O)c1ccccc1)C(C)(C)C)C(=O)c1ccccc1
[1]
  GI50: 2.9 µM (inactive)
[2]
  GI50: 6.58 µM (inactive)
[3]
  GI50: 25.5 µM (inactive)
[4]
  GI50: 5.42 µM (inactive)
[5]
  GI50: 15.7 µM (inactive)
[6]
  GI50: 16.9 µM (inactive)
[7]
  GI50: 16.7 µM (inactive)
[9]
  GI50: 3.84 µM (inactive)

## COC1CCC(=C2C(=O)OC(C)(C)OC2=O)N1 (stereo not given)
[1]
  GI50: > 100 µM (inactive)
[2]
  GI50: > 100 µM (inactive)
[4]
  GI50: > 100 µM (inactive)
[5]
  GI50: > 100 µM (inactive)
[6]
  GI50: > 100 µM (inactive)
[7]
  GI50: > 100 µM (inactive)
[9]
  GI50: > 100 µM (inactive)

## Cc1cc2c(=O)cc(-c3ccc(O)cc3)oc2c(C(=O)O)c1C
[1]
  GI50: > 100 µM (inactive)
[2]
  GI50: > 100 µM (inactive)
[3]
  GI50: > 100 µM (inactive)
[4]
  GI50: > 100 µM (inactive)
[5]
  GI50: > 100 µM (inactive)
[6]
  GI50: > 100 µM (inactive)
[7]
  GI50: > 100 µM (inactive)
[9]
  GI50: > 100 µM (inactive)

## CCN(CC)c1ccc(Cl)c2c1C(O)(C(C)C)C2(C)C (stereo not given)
[1]
  GI50: 17.4 µM (inactive)
[3]
  GI50: 28.2 µM (inactive)
[4]
  GI50: 14 µM (inactive)
[5]
  GI50: 14.7 µM (inactive)
[6]
  GI50: 21.2 µM (inactive)
[7]
  GI50: 15.8 µM (inactive)
[9]
  GI50: 17 µM (inactive)

## Nc1nc2c3nc(Nc4ccccc4)sc3nc(=S)n2c2sc(Nc3ccccc3)nc12
[1]
  GI50: > 100 µM (inactive)
[2]
  GI50: 1.98 µM (inactive)
[3]
  GI50: 22.5 µM (inactive)
[4]
  GI50: 36.1 µM (inactive)
[5]
  GI50: 13.4 µM (inactive)
[6]
  GI50: 20.3 µM (inactive)
[7]
  GI50: > 100 µM (inactive)
[9]
  GI50: 4.18 µM (inactive)

## CCOC(=O)C/N=c1\nc(SC)sc2c(C(=O)OCC)nc(Sc3ccccc3)n12
[1]
  GI50: 34.2 µM (inactive)
[2]
  GI50: 41.2 µM (inactive)
[4]
  GI50: > 100 µM (inactive)
[5]
  GI50: 34 µM (inactive)
[6]
  GI50: 62.7 µM (inactive)
[8]
  GI50: 25.3 µM (inactive)
[9]
  GI50: 14.8 µM (inactive)

## Cc1c(C(=O)/C=C/C=C/c2ccccc2)[n+]([O-])c2ccccc2[n+]1[O-]
[1]
  GI50: 14.5 µM (inactive)
[2]
  GI50: 35 µM (inactive)
[3]
  GI50: 42 µM (inactive)
[4]
  GI50: 45.2 µM (inactive)
[5]
  GI50: 34.3 µM (inactive)
[6]
  GI50: 25.6 µM (inactive)
[7]
  GI50: 32.2 µM (inactive)
[9]
  GI50: 18 µM (inactive)

## CCCCC(=O)OC[n+]1ccc2c(C)c3[nH]c4ccccc4c3c(C)c2c1
[1]
  GI50: 0.37 µM (active)
[3]
  GI50: 0.796 µM (active)
[4]
  GI50: 1.34 µM (inactive)
[5]
  GI50: 1.07 µM (active)
[7]
  GI50: 0.147 µM (active)
[8]
  GI50: 1.07 µM (active)
[9]
  GI50: 0.855 µM (active)

## Cc1ccc(-c2cc(-c3ccco3)nc(N)n2)o1
[2]
  GI50: > 100 µM (inactive)
[3]
  GI50: > 100 µM (inactive)
[7]
  GI50: > 100 µM (inactive)
[9]
  GI50: > 100 µM (inactive)

## [O-][S+](Cc1ccccc1)c1nc2ccccc2nc1-c1cccs1 (stereo not given)
[1]
  GI50: 11 µM (inactive)
[2]
  GI50: 2.52 µM (inactive)
[3]
  GI50: 22 µM (inactive)
[4]
  GI50: 15.9 µM (inactive)
[5]
  GI50: 5.77 µM (inactive)
[6]
  GI50: 2.5 µM (inactive)
[7]
  GI50: 9.59 µM (inactive)
[9]
  GI50: 3.22 µM (inactive)

## CCCCC(C(=O)C(=O)Nc1ccccc1CC)C(=O)C(C)C (stereo not given)
[1]
  GI50: > 100 µM (inactive)
[2]
  GI50: > 100 µM (inactive)
[3]
  GI50: > 100 µM (inactive)
[5]
  GI50: > 100 µM (inactive)
[6]
  GI50: > 100 µM (inactive)
[7]
  GI50: > 100 µM (inactive)
[8]
  GI50: > 100 µM (inactive)
[9]
  GI50: > 100 µM (inactive)

## Cc1ccc2c(c1)-c1c3c(nn1C)-c1ccccc1SC3O2 (stereo not given)
[1]
  GI50: > 100 µM (inactive)
[2]
  GI50: 23.4 µM (inactive)
[3]
  GI50: > 100 µM (inactive)
[4]
  GI50: 8.43 µM (inactive)
[5]
  GI50: 81.3 µM (inactive)
[6]
  GI50: 32.3 µM (inactive)
[7]
  GI50: 55.5 µM (inactive)
[9]
  GI50: 30.7 µM (inactive)

## CC(C)(C)C1=CC(=C(P(=O)(O)O)P(=O)(O)O)C=C(C(C)(C)C)C1=O
[1]
  GI50: > 50 µM (inactive)
[3]
  GI50: > 50 µM (inactive)
[4]
  GI50: > 50 µM (inactive)
[5]
  GI50: > 50 µM (inactive)
[6]
  GI50: > 50 µM (inactive)
[7]
  GI50: > 50 µM (inactive)
[8]
  GI50: > 50 µM (inactive)
[9]
  GI50: > 50 µM (inactive)
